Experimental data published in patent publication US8476256B2, “Diazonamide analogs” (Joyant Pharmaceuticals, Inc., priority 2008, dated 2013).

How the values were obtained:
[1] = tested on: MiaPaca (pancreatic cancer) cells; test: MiaPaca xenograft model, tumor free animals; type: in vivo, Athymic nude mice; details: 20 mg/kg, tail vein injection, 6 injections (days 9, 11, 14, 16, 18, 21); at 35 days post tumor cell injection; 7 mice/group
Method: Animals: Athymic nude mice, female, 6-7 weeks old, 20-25 g. Animals bearing with 180-400 mg tumors were selected for experiment. 7 mice/group.
Administration: Tail vein injection, 200 μL/mouse, to provide the dose indicated.
Dosing schedule: 6 injections were given on the days indicated post-tumor cell injection.
Controls: Vehicle, Compound J at 20 mg/kg.
Test Compound preparation: Compound J and all test compounds were dissolved in 50% Cremophore/EtOH (1:1) at 10 mg/mL as stock solution. Each compound solution was diluted with saline before injection to the concentration indicated.
Xenograft Model: MiaPaca (pancreatic cancer) cells
Dosing schedule: 6 injections were given on days 9, 11, 14, 16, 18 and 21 post-tumor cell injection.
Test Compounds: Example 23, Example 24, and Example 53, at 20 mg/kg.
For animals treated with the compound of Example 24 at 20 mg/kg, 7 of 7 animals were tumor free at 35 days post tumor cell injection.

[2] = tested on: A2058 (human melanoma) cell line; test: Cell viability assay (CELL-TITER-GLO), A2058; type: cell-based; details: A2058 cells, 48 hour treatment, 1 nM to 1 μM
Method: (§1) Cell viability assays were run using standard protocols known to those of skill in art. Cells were plated in 96 well plates at the density of 3,000-10,000 cells per well. Twenty four hours later, cells were treated with increasing concentration of test compounds (1 nM to 1 μM). After another 48 hour, cell survival was measured using CELL-TITER-GLO® reagent (Promega) following the protocol provided by the manufacture. The IC50 value was determined as the concentration of test compound that kills 50% of the cell population.
(§2) Cell viability data generated according to the protocol described herein was generated for representative compounds in the A2058 (human melanoma) and U937 (human leukemic monocyte lymphoma) cell lines. The compound of Example 16 (“Compound J”) was used as a reference compound.

[3] = tested on: U937 (human leukemic monocyte lymphoma) cell line; test: Cell viability assay (CELL-TITER-GLO), U937; type: cell-based; details: U-937, U937 cells, 48 hour treatment, 1 nM to 1 μM
Method: as §1, §2

SMILES | Tumor-free animals out of 7 [1] | IC50 [2] [µM] | IC50 [3] [µM]
CCC(C)(O)C(=O)NC1Cc2ccc3c(c2)[C@]24C5=C(N=C(O5)[C@H](C(C)C)NC1=O)c1ncc(o1)-c1c[nH]c5cccc(c15)-c1cccc2c1NC4O3 (stereo partly shown) [Example 23] | 0/7 (35) | 0.124 | 0.156
CC(C)[C@@H]1NC(=O)C(NC(=O)[C@H]2CCOC2)Cc2ccc3c(c2)[C@]24C5=C(N=C1O5)c1ncc(o1)-c1c[nH]c5cccc(c15)-c1cccc2c1NC4O3 (stereo partly shown) [Example 53] | 1/7 (35) | 0.209 | 0.078
CCCSC(=O)NC1Cc2ccc3c(c2)[C@]24C5=C(N=C(O5)[C@H](C(C)C)NC1=O)c1ncc(o1)-c1c[nH]c5cccc(c15)-c1cccc2c1NC4O3 (stereo partly shown) [Example 72] | – | 0.6 | 0.543
CC(C)OC(=O)NC1Cc2ccc3c(c2)C24C5=C(N=C(O5)[C@H](C(C)C)NC1=O)c1ncc(o1)-c1c[nH]c5cccc(c15)-c1cccc2c1N[C@H]4O3 (stereo partly shown) [Example 68] | – | 0.451 | 0.214
CC(C)[C@H](O)C(=O)N[C@H]1Cc2ccc3c(c2)[C@]24C5=C(N=C(O5)[C@H](C(C)C)NC1=O)c1ncc(o1)-c1c[nH]c5cccc(c15)-c1cccc2c1NC4O3 (stereo partly shown) [Example 16, reference compound] | 0/7 (35) | 0.043 | 0.034
CCC(O)(CC)C(=O)NC1Cc2ccc3c(c2)C24C5=C(N=C(O5)[C@H](C(C)C)NC1=O)c1nc(Cl)c(o1)-c1c(Cl)[nH]c5cccc(c15)-c1cccc2c1N[C@H]4O3 (stereo partly shown) [Example 90] | – | 0.375 | 0.302
CC(C)[C@@H]1NC(=O)C(NC(=O)C2CCCC2)Cc2ccc3c(c2)[C@]24C5=C(N=C1O5)c1ncc(o1)-c1c[nH]c5cccc(c15)-c1cccc2c1NC4O3 (stereo partly shown) [Example 50] | – | 0.339 | 0.331
CC(C)[C@@H]1NC(=O)C(NC(=O)Cc2cccs2)Cc2ccc3c(c2)[C@]24C5=C(N=C1O5)c1ncc(o1)-c1c[nH]c5cccc(c15)-c1cccc2c1NC4O3 (stereo partly shown) [Example 64] | – | > 1 | > 1
CC(C)C1NC(=O)[C@@H](NC(=O)[C@@H]2C[C@@H](O)CN2)Cc2ccc3c(c2)C24C5=C(N=C1O5)c1ncc(o1)-c1c[nH]c5cccc(c15)-c1cccc2c1N[C@H]4O3 (stereo partly shown) [Example 37] | – | > 1 | > 1
CCC(O)(CC)C(=O)NC1Cc2ccc3c(c2)C24C5=C(N=C(O5)[C@H](C(C)C)NC1=O)c1nc(Cl)c(o1)-c1c(Cl)[nH]c5cccc(c15)-c1cc(Cl)cc2c1N[C@H]4O3 (stereo partly shown) [Example 91] | – | > 1 | > 1
CC(C)[C@@H]1NC(=O)C(NC(=O)[C@H](C)O)Cc2ccc3c(c2)[C@]24C5=C(N=C1O5)c1ncc(o1)-c1c[nH]c5cccc(c15)-c1cccc2c1NC4O3 (stereo partly shown) [Example 18] | – | 0.394 | 0.208
CC(C)[C@@H]1NC(=O)C(NC(=O)C2CCCCC2)Cc2ccc3c(c2)[C@]24C5=C(N=C1O5)c1ncc(o1)-c1c[nH]c5cccc(c15)-c1cccc2c1NC4O3 (stereo partly shown) [Example 51] | – | 0.235 | 0.276
CC(C)[C@H](O)C(=O)N[C@H]1Cc2ccc3c(c2)C24C5=C(N=C(O5)[C@H](C(C)C)NC1=O)c1nc(Cl)c(o1)-c1c[nH]c5cccc(c15)-c1cccc2c1N[C@H]4O3 (stereo partly shown) [Example 86] | – | 0.081 | 0.084
COC(=O)c1nc2oc1-c1c[nH]c3cccc(c13)-c1cccc3c1N[C@H]1Oc4ccc5cc4C31c1oc(nc1-2)[C@H](C(C)C)NC(=O)C(NC(=O)[C@@H](O)C(C)C)C5 (stereo partly shown) [Example 76] | – | 0.013 | 0.018
CC(C)[C@H](N)C(=O)N[C@H]1Cc2ccc3c(c2)C24C5=C(N=C(O5)[C@H](C(C)C)NC1=O)c1ncc(o1)-c1c[nH]c5cccc(c15)-c1cccc2c1N[C@H]4O3 (stereo partly shown) [Example 33] | – | 1.44 | 0.572
CC(C)[C@@H]1NC(=O)C(NC(=O)C(C)(C)C)Cc2ccc3c(c2)[C@]24C5=C(N=C1O5)c1ncc(o1)-c1c[nH]c5cccc(c15)-c1cccc2c1NC4O3 (stereo partly shown) [Example 60] | – | 0.538 | 0.255
CCC(O)(CC)C(=O)N[C@H]1Cc2ccc3c(c2)C24C5=C(N=C(O5)[C@H](C(C)C)NC1=O)c1ncc(o1)-c1c[nH]c5c(O)ccc(c15)-c1cccc2c1N[C@H]4O3 (stereo partly shown) [Example 80] | – | 0.183 | 0.182
CCC(O)(CC)C(=O)N[C@H]1Cc2ccc3c(c2)C24C5=C(N=C(O5)[C@H](C(C)C)NC1=O)c1ncc(o1)-c1c[nH]c5cccc(c15)-c1cc(Br)cc2c1N[C@H]4O3 (stereo partly shown) [Example 87] | – | > 1 | > 1

SMILES | Tumor-free animals out of 7 [1] | IC50 [2] [µM] | IC50 [3] [µM]
CC(C)[C@@H]1NC(=O)C(NC(C[N+](=O)[O-])C(F)(F)F)Cc2ccc3c(c2)C24C5=C(N=C1O5)c1ncc(o1)-c1c[nH]c5cccc(c15)-c1cccc2c1N[C@H]4O3 (stereo partly shown) [Example 92] | – | > 1 | 0.75
CC(C)CC(=O)N[C@H]1Cc2ccc3c(c2)[C@]24C5=C(N=C(O5)[C@H](C(C)C)NC1=O)c1ncc(o1)-c1c[nH]c5cccc(c15)-c1cccc2c1NC4O3 (stereo partly shown) [Example 38] | – | 0.417 | 0.216
CC(C)C1NC(=O)[C@@H](NC(=O)[C@@H]2CCCN2)Cc2ccc3c(c2)C24C5=C(N=C1O5)c1ncc(o1)-c1c[nH]c5cccc(c15)-c1cccc2c1N[C@H]4O3 (stereo partly shown) [Example 36] | – | > 1 | > 1
CCCC(C)C(=O)NC1Cc2ccc3c(c2)[C@]24C5=C(N=C(O5)[C@H](C(C)C)NC1=O)c1ncc(o1)-c1c[nH]c5cccc(c15)-c1cccc2c1NC4O3 (stereo partly shown) [Example 61] | – | 0.636 | 0.55
CC(C)[C@@H]1NC(=O)C(NC(=O)[C@@H](O)C(C)(C)C)Cc2ccc3c(c2)[C@]24C5=C(N=C1O5)c1ncc(o1)-c1c[nH]c5cccc(c15)-c1cccc2c1NC4O3 (stereo partly shown) [Example 19] | – | 0.222 | 0.062
CC(C)[C@@H]1NC(=O)C(NC(=O)[C@H](O)[C@@H](NC(=O)c2ccccc2)c2ccccc2)Cc2ccc3c(c2)[C@]24C5=C(N=C1O5)c1ncc(o1)-c1c[nH]c5cccc(c15)-c1cccc2c1NC4O3 (stereo partly shown) [Example 29] | – | > 1 | > 1
COc1cc(C(=O)NC2Cc3ccc4c(c3)C35C6=C(N=C(O6)[C@H](C(C)C)NC2=O)c2ncc(o2)-c2c[nH]c6cccc(c26)-c2cccc3c2N[C@H]5O4)cc(OC)c1OC (stereo partly shown) [Example 59] | – | 0.798 | 0.619
CC(C)[C@@H]1NC(=O)C(NC(=O)c2cccs2)Cc2ccc3c(c2)[C@]24C5=C(N=C1O5)c1ncc(o1)-c1c[nH]c5cccc(c15)-c1cccc2c1NC4O3 (stereo partly shown) [Example 63] | – | 0.488 | 0.206
CC(C)[C@@H]1NC(=O)[C@@H](NC(=O)[C@@H](O)c2ccccc2)Cc2ccc3c(c2)C24C5=C(N=C1O5)c1ncc(o1)-c1c[nH]c5cccc(c15)-c1cccc2c1N[C@H]4O3 (stereo partly shown) [Example 17] | – | 0.63 | 0.465
C#CCOC(=O)NC1Cc2ccc3c(c2)[C@]24C5=C(N=C(O5)[C@H](C(C)C)NC1=O)c1ncc(o1)-c1c[nH]c5cccc(c15)-c1cccc2c1NC4O3 (stereo partly shown) [Example 70] | – | 0.692 | 0.434
CC(C)[C@@H]1NC(=O)C(NC(=O)[C@@H]2CCOC2)Cc2ccc3c(c2)[C@]24C5=C(N=C1O5)c1ncc(o1)-c1c[nH]c5cccc(c15)-c1cccc2c1NC4O3 (stereo partly shown) [Example 54] | – | 0.081 | 0.078
CC(C)[C@@H]1NC(=O)C(NS(C)(=O)=O)Cc2ccc3c(c2)C24C5=C(N=C1O5)c1ncc(o1)-c1c[nH]c5cccc(c15)-c1cccc2c1N[C@H]4O3 (stereo partly shown) [Example 73] | – | 0.14 | 0.067
COc1ccc2c3c(c[nH]c13)-c1cnc(o1)-c1nc3oc1C14c5cc(ccc5O[C@@H]1Nc1c-2cccc14)CC(NC(=O)[C@@H](O)C(C)C)C(=O)N[C@H]3C(C)C (stereo partly shown) [Example 78] | – | 0.042 | 0.051
CC/C=C(\C)C(=O)NC1Cc2ccc3c(c2)[C@]24C5=C(N=C(O5)[C@H](C(C)C)NC1=O)c1ncc(o1)-c1c[nH]c5cccc(c15)-c1cccc2c1NC4O3 (stereo partly shown) [Example 44] | – | 0.587 | 0.399
CCCC(Br)C(=O)NC1Cc2ccc3c(c2)[C@]24C5=C(N=C(O5)[C@H](C(C)C)NC1=O)c1ncc(o1)-c1c[nH]c5cccc(c15)-c1cccc2c1NC4O3 (stereo partly shown) [Example 47] | – | 0.546 | 0.323
CCC(O)(CC)C(=O)N[C@H]1Cc2ccc3c(c2)C24C5=C(N=C(O5)[C@H](C(C)C)NC1=O)c1ncc(o1)-c1cn(C)c5c(OC)ccc(c15)-c1cccc2c1N[C@H]4O3 (stereo partly shown) [Example 82] | – | 0.029 | 0.021
CC(C)[C@@H]1NC(=O)C(NC(=O)C2(C)CCCCC2)Cc2ccc3c(c2)[C@]24C5=C(N=C1O5)c1ncc(o1)-c1c[nH]c5cccc(c15)-c1cccc2c1NC4O3 (stereo partly shown) [Example 52] | – | 0.386 | 0.491
